Experimental findings from patent US20070116800A1, “Chewing Gum with High-Potency Sweetener” (The Coca-Cola Company, priority 2005, published 2007) are described below.

Data set [1] can be described thus: Rate of dissolution in H2O at 25° C. of rebaudioside A polymorph and amorphous forms. It counts as physicochemical.
Data set [2] is classed as physicochemical. How it is done: A solution of rebaudioside A (>97% pure by HPLC ) was prepared in double distilled water (12.5 gm in 50 mL, 25% concentration) by stirring the mixture at 40° C. for 5 minutes. An amorphous form of_rebaudioside A was formed by immediately using the clear solution for spray drying with the Lab-Plant spray drier SD-04 instrument (Lab-Plant Ltd., West Yorkshire, U.K.). The solution was fed through the feed pump into the nozzle atomizer which atomized it into a spray of droplets with the help of a constant flow of nitrogen/air. […] This dry powder (11-12 g, H2O 6.74%) was discharged continuously from the drying chamber and was collected in a bottle.

Some results are limits rather than exact numbers.

As for rebaudioside A [Form 4], the “Rate of dissolution in H2O at 25° C. (grade in words)” value (shortened to “Rate … (grade in words)”) in data set [1] is recorded as “High”. Besides, the “Rate of dissolution in H2O at 25° C.” value in data set [1] (5 minutes) was “(>35.0%/5 %/5 minutes”. The substance also came in with a solubility in water in data set [2] of over 35.0%.

With rebaudioside A [Form 3], in data set [1], the “Rate … (grade in words)” value is listed as “High”. In addition, the “Rate of dissolution in H2O at 25° C.” value in data set [1] (5 minutes) was “(>30%/5 %/5 minutes”.

In the case of rebaudioside A [Form 2], in data set [1], the “Rate … (grade in words)” value is given as “Intermediate”. In addition, the “Rate of dissolution in H2O at 25° C.” value in data set [1] (5 minutes) was “(<30%/5 %/5 minutes”.

In the case of rebaudioside A [Form 1], in data set [1], the “Rate … (grade in words)” value is “Very low”. For the same substance, the “Rate of dissolution in H2O at 25° C.” value in data set [1] (60 minutes) is recorded as “(<0.2%/60 %/60 minutes”.
